# Data as given in publication PMC4725628 (International Journal of Nanomedicine, 2016).
# Key:
# [1] = In vivo pharmacokinetic study in rats; design: species or system Sprague Dawley rats
# MTT cytotoxicity assay = format: cell-based, human; settings: human, Caco-2 cells
# Caco-2 cells [2] = assay: MTT cytotoxicity assay; format: cell-based, human; settings: 10–200 μg/mL
# Caco-2 cell homogenates = assay: Degradation in Caco-2 cell homogenates; format: in vitro ADME, human; settings: 37°C, within 120 minutes
# Caco-2 cells [3] = assay: Uptake into Caco-2 cell monolayers; format: in vitro ADME, human
# [4] = Bidirectional transport across Caco-2 cell monolayers; format: in vitro ADME; settings: human
# Caco-2 cell monolayers = assay: TEER of Caco-2 cell monolayers; format: cell-based, human; settings: Caco-2 monolayers; HM formulations 40 μg/mL, TMC 0.1% w/w
# [5] = mice, 60 mg/kg, within 1 hour
# [6] = Sprague Dawley, rat, plasma, po, 60 mg/kg
smiles,measurement,setting,value
"COc1ccc2c(c1)[nH]c1c(C)nccc12 [HM, Harmine]",AUC,"[1]; Sprague Dawley, rat, plasma, iv, 20 mg/kg",12900 ± 1250 ng·h/mL
same,AUC,[1]; [6],9760 ± 2340 ng·h/mL
same,Cmax,[1]; [6],3110 ± 320 ng/mL
same,BA (oral bioavailability),"[1]; rats, IG 60 mg/kg versus HM IV 20 mg/kg",25.25±6.05%
same,"viability at 24 h, 200 μg/mL",MTT cytotoxicity assay,> 90%
same,Toxicity to Caco-2 cells,Caco-2 cells [2],almost no toxicity
same,HM degraded,Caco-2 cell homogenates,more than 60%
same,Effect of endocytosis inhibitor CPZ on uptake,Caco-2 cells [3],did not affect
same,Effect of energy inhibitor NaN3 on uptake,Caco-2 cells [3],did not affect
same,Effect of p-gp inhibitor CyA on uptake,Caco-2 cells [3],did not affect
same,Papp at 2 h,[4],> 1 ×10⁻⁶ cm/s
same,"Papp at 2 h, 40 μg/mL",[4],5.11 ± 0.69 ×10⁻⁶ cm/s
same,Reduction of TEER,Caco-2 cell monolayers,lower than 15%
same,Decrease of retention amount in the stomach,[5],about 10%
